The values below come from patent US10285982B2, “3-(1H-pyrrolo[2,3-B]pyridin-2-yl)-1H-pyrazolo[3,4-C]pyridines and therapeutic uses thereof” (Samumed, LLC, priority 2015, dated 2019).

Common to all, as to assay type: cell-based
One experiment has as its system SW480 colon cancer cells. Kind of experiment: Cell viability assay (CellTiter-Blue). The following applies: Homo sapiens, 96 h, four days; for inhibition at 10 µM: given where EC50 >10 μM, read-out: percent inhibition at 10 μM. Put shortly:
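4-day exposure, 37 °C/5% CO2; ~2×10^3 SW480 cells/well; 8-pt 1:3 curve, 10–0.0045 μM, duplicates vs DMSO controls. Resazurin→resorufin fluorescence readout, ~3 h. EC50 by nonlinear fit; if >10 μM, % inhibition at 10 μM reported.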

Experiment [1] deals with primary human fibroblasts derived from IPF patients (LL29 cells) treated with TGF-β1. Kind of experiment: Inhibition of fibrotic process, αSMA staining in TGF-β1 treated LL29 fibroblasts. The settings on record: Fibroblast; for EC50: 96 h, % αSMA positive LL29 cells, TGF-β1 20 ng/mL, 4 days; for inhibition at 10 µM: given where EC50 >10 μM, αSMA, LL29 cells, TGF-β1, read-out: percent inhibition at 10 μM. In short, it runs like this: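 Read-out: fraction of αSMA-positive cells by high-content imaging, SYTOX-stained dead cells excluded, normalized to TGF-β1/DMSO wells. Cells got compound (10 μM–[…], 11 points) plus TGF-β1 20 ng/mL for 4 days. EC50 from triplicate curves; above 10 μM, % inhibition at 10 μM given.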

A further experiment deals with IL-6 (THP-1 cells). The experiment in a line: IL-6 inhibition in LPS-stimulated THP-1 cells (HTRF). The settings on record: Homo sapiens; for EC50: IL-6 in THP-1 cells, LPS 500 ng/mL, 22 hours; for inhibition at 10 µM: given where EC50 >10 μM, IL-6, THP-1 cells, LPS, read-out: percent inhibition at 10 μM. In short, it runs like this: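 Readout is the 665/620 nm HTRF ratio for secreted IL-6, normalized to DMSO wells, with EC50 from a variable-slope four-parameter fit, or % inhibition at 10 μM when above 10 μM. Cells (1% FBS, 24 h beforehand) got compound for 2 h, then LPS 500 ng/mL for 22 h at 37° C; top dose 10 μM, 0.1% DMSO.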

By inhibition is commonly meant the drop in the measured response relative to a control, in per cent. The term EC50 denotes the concentration at which the effect is half-maximal. Low readings indicate greater potency, high ones weaker potency. With `c1cncc(-c2ccnc3[nH]c(-c4n[nH]c5cnc(-c6cncc(CN7CCCC7)c6)cc45)cc23)c1` [Compound 98, 3-(4-(Pyridin-3-yl)-1H-pyrrolo[2,3-b]pyridin-2-yl)-5-(5-(pyrrolidin-1-ylmethyl)pyridin-3-yl)-1H-pyrazolo[3,4-c]pyridine], the inhibition at 10 µM with SW480 colon cancer cells was 11.5%; in the experiment on IL-6 (THP-1 cells), 27.7%. Besides, the concentration for a half-maximal effect (EC50) was greater than 10 µM with SW480 colon cancer cells, 8.15 µM in experiment [1] and greater than 10 µM in the experiment on IL-6 (THP-1 cells).

As to `CCC(=O)Nc1cncc(-c2cc3c(-c4cc5c(-c6cccc(F)c6)ccnc5[nH]4)n[nH]c3cn2)c1` [Compound 1, N-(5-(3-(4-(3-Fluorophenyl)-1H-pyrrolo[2,3-b]pyridin-2-yl)-1H-pyrazolo [3,4-c]pyridin-5-yl)pyridin-3-yl)propionamide], the inhibition at 10 µM with SW480 colon cancer cells stood at 36.3%; with IL-6 (THP-1 cells), 23.6%. The concentration for a half-maximal effect (EC50) is greater than 10 µM in the experiment with SW480 colon cancer cells, 1.62 µM in experiment [1] and greater than 10 µM in the experiment on IL-6 (THP-1 cells).

For `CN1CCN(c2ccnc3[nH]c(-c4n[nH]c5cnc(-c6cn[nH]c6)cc45)cc23)CC1` [Compound 635, 3-(4-(4-Methylpiperazin-1-yl)-1H-pyrrolo[2,3-b]pyridin-2-yl)-5-(1H-pyrazol-4-yl)-1H-pyrazolo[3,4-c]pyridine], the inhibition at 10 µM came out at 10.7% with SW480 colon cancer cells, 44.9% in experiment [1] and 10.9% with IL-6 (THP-1 cells). Besides, the EC50 (in the experiment on SW480 colon cancer cells; in experiment [1]; in the experiment on IL-6 (THP-1 cells)) was greater than 10 µM throughout.

As for `CCNCc1cncc(-c2cc3c(-c4cc5c(-c6ccccc6F)ccnc5[nH]4)n[nH]c3cn2)c1` [Compound 62, N-((5-(3-(4-(2-Fluorophenyl)-1H-pyrrolo[2,3-b]pyridin-2-yl)-1H-pyrazolo [3,4-c]pyridin-5-yl)pyridin-3-yl)methyl)ethanamine], the inhibition at 10 µM in the experiment on SW480 colon cancer cells was 15.7%; in experiment [1], 64.9%; in the experiment with IL-6 (THP-1 cells), 24.8%. The EC50 (with SW480 colon cancer cells; in experiment [1]; in the experiment with IL-6 (THP-1 cells)) was greater than 10 µM each time.

Turning to `CN(C)CCOc1cncc(-c2cc3c(-c4cc5c(-c6cccnc6)ccnc5[nH]4)n[nH]c3cn2)c1` [Compound 563, N,N-Dimethyl-2-((5-(3-(4-(pyridin-3-yl)-1H-pyrrolo[2,3-b]pyridin-2-yl)-1H-pyrazolo[3,4-c]pyridin-5-yl)pyridin-3-yl)oxy)ethan-1-amine], the inhibition at 10 µM was 0% with SW480 colon cancer cells and 15% in the experiment with IL-6 (THP-1 cells). The EC50 in the experiment on SW480 colon cancer cells was greater than 10 µM; in experiment [1], 1.11 µM; in the experiment with IL-6 (THP-1 cells), greater than 10 µM.

With `Nc1cncc(-c2cc3c(-c4cc5c(-c6ccccc6F)ccnc5[nH]4)n[nH]c3cn2)c1` [Compound 59, 5-(3-(4-(2-Fluorophenyl)-1H-pyrrolo[2,3-b]pyridin-2-yl)-1H-pyrazolo[3,4-c]pyridin-5-yl)pyridin-3-amine], the inhibition at 10 µM with SW480 colon cancer cells worked out at 16.4%; with IL-6 (THP-1 cells) it was 37.3%. The EC50 in the experiment on SW480 colon cancer cells was greater than 10 µM; in experiment [1], 0.386 µM; in the experiment with IL-6 (THP-1 cells) it was greater than 10 µM.

With `CC(C)C(=O)Nc1cncc(-c2cc3c(-c4cc5c(-c6ccc(F)cc6)ccnc5[nH]4)n[nH]c3cn2)c1` [Compound 37, N-(5-(3-(4-(4-Fluorophenyl)-1H-pyrrolo[2,3-b]pyridin-2-yl)-1H-pyrazolo [3,4-c]pyridin-5-yl)pyridin-3-yl)isobutyramide], the EC50 is 2.69 µM in the experiment with SW480 colon cancer cells, 0.668 µM in experiment [1] and greater than 10 µM with IL-6 (THP-1 cells). The inhibition at 10 µM with IL-6 (THP-1 cells) was 25.4%.

Take `Oc1cncc(-c2cc3c(-c4cc5c(-c6ccc(F)cc6)ccnc5[nH]4)n[nH]c3cn2)c1` [Compound 533, 5-(3-(4-(4-Fluorophenyl)-1H-pyrrolo[2,3-b]pyridin-2-yl)-1H-pyrazolo[3,4-c]pyridin-5-yl)pyridin-3-ol]: the EC50 was 0.483 µM in the experiment with SW480 colon cancer cells, 3.54 µM in experiment [1] and greater than 10 µM in the experiment on IL-6 (THP-1 cells). The inhibition at 10 µM with IL-6 (THP-1 cells) stood at 7.2%.

As to `O=C(Nc1cncc(-c2cc3c(-c4cc5c(-c6ccccc6F)ccnc5[nH]4)n[nH]c3cn2)c1)C1CCCCC1` [Compound 79, N-(5-(3-(4-(2-Fluorophenyl)-1H-pyrrolo[2,3-b]pyridin-2-yl)-1H-pyrazolo [3,4-c]pyridin-5-yl)pyridin-3-yl)cyclohexanecarboxamide], the concentration giving a half-maximal response (EC50) was 3.49 µM with SW480 colon cancer cells, 1.34 µM in experiment [1] and greater than 10 µM in the experiment on IL-6 (THP-1 cells). In the experiment with IL-6 (THP-1 cells), the inhibition at 10 µM turned out to be 5.9%.

Consider `CC(C)CC(=O)Nc1cncc(-c2cc3c(-c4cc5c(-c6ccncc6)ccnc5[nH]4)n[nH]c3cn2)c1` [Compound 114, 3-Methyl-N-(5-(3-(4-(pyridin-4-yl)-1H-pyrrolo[2,3-b]pyridin-2-yl)-1H-pyrazolo[3,4-c]pyridin-5-yl)pyridin-3-yl)butanamide], for which the inhibition at 10 µM with SW480 colon cancer cells amounted to 0%; in experiment [1], 0%; in the experiment with IL-6 (THP-1 cells) it was 13%. The EC50 (in the experiment on SW480 colon cancer cells; in experiment [1]; in the experiment on IL-6 (THP-1 cells)) was greater than 10 µM in each case.

Turning to `c1csc(-c2ccnc3[nH]c(-c4n[nH]c5cnc(-c6cncc(OC7CCCCC7)c6)cc45)cc23)c1` [Compound 703, 5-(5-(Cyclohexyloxy)pyridin-3-yl)-3-(4-(thiophen-2-yl)-1H-pyrrolo[2,3-b]pyridin-2-yl)-1H-pyrazolo[3,4-c]pyridine], the inhibition at 10 µM with SW480 colon cancer cells was found to be 2.7%; in the experiment with IL-6 (THP-1 cells), 43.3%. Also, the figures for the EC50 (with SW480 colon cancer cells; in experiment [1]; in the experiment with IL-6 (THP-1 cells)) were greater than 10 µM, 1.73 µM and greater than 10 µM, respectively.

As to `CN1CCN(c2ccnc3[nH]c(-c4n[nH]c5cnc(-c6cncc(N(C)C)c6)cc45)cc23)CC1` [Compound 231, N,N-Dimethyl-5-(3-(4-(4-methylpiperazin-1-yl)-1H-pyrrolo[2,3-b]pyridin-2-yl)-1H-pyrazolo[3,4-c]pyridin-5-yl)pyridin-3-amine], the values for the inhibition at 10 µM (with SW480 colon cancer cells; in experiment [1]; in the experiment with IL-6 (THP-1 cells)) were 9.2%, 41.8% and 3.7%, respectively. For the same compound, the EC50 (in the experiment with SW480 colon cancer cells; in experiment [1]; in the experiment on IL-6 (THP-1 cells)) was greater than 10 µM throughout.

With `CN(C)Cc1cncc(-c2cc3c(-c4cc5c(-c6ccccc6F)ccnc5[nH]4)n[nH]c3cn2)c1` [Compound 69, 1-(5-(3-(4-(2-Fluorophenyl)-1H-pyrrolo[2,3-b]pyridin-2-yl)-1H-pyrazolo [3,4-c]pyridin-5-yl)pyridin-3-yl)-N,N-dimethylmethanamine], the inhibition at 10 µM turned out to be 13.2% in the experiment with SW480 colon cancer cells, 0% in experiment [1] and 17.4% with IL-6 (THP-1 cells). The EC50 (in the experiment with SW480 colon cancer cells; in experiment [1]; in the experiment on IL-6 (THP-1 cells)) was greater than 10 µM each time.

Regarding `CCCCC(=O)Nc1cncc(-c2cc3c(-c4cc5c(-c6ccccc6F)ccnc5[nH]4)n[nH]c3cn2)c1` [Compound 75, N-(5-(3-(4-(2-Fluorophenyl)-1H-pyrrolo[2,3-b]pyridin-2-yl)-1H-pyrazolo [3,4-c]pyridin-5-yl)pyridin-3-yl)pentanamide], the EC50 with SW480 colon cancer cells is 0.242 µM; in experiment [1], 0.076 µM; in the experiment with IL-6 (THP-1 cells), greater than 10 µM. The inhibition at 10 µM in the experiment on IL-6 (THP-1 cells) was 0%.

For the compound `CCCCC(=O)Nc1cncc(-c2cc3c(-c4cc5c(-c6cccnc6)ccnc5[nH]4)n[nH]c3cn2)c1` [Compound 103, N-(5-(3-(4-(Pyridin-3-yl)-1H-pyrrolo[2,3-b]pyridin-2-yl)-1H-pyrazolo[3,4-c]pyridin-5-yl)pyridin-3-yl)pentanamide], the inhibition at 10 µM in the experiment on SW480 colon cancer cells was 7.4%; in experiment [1], 4.8%; in the experiment on IL-6 (THP-1 cells), 17.8%. Besides, the EC50 (with SW480 colon cancer cells; in experiment [1]; in the experiment on IL-6 (THP-1 cells)) was greater than 10 µM in each case.

Regarding `Cn1cc(-c2cc3c(-c4cc5cccnc5[nH]4)n[nH]c3cn2)cn1` [Compound 652, 5-(1-Methyl-1H-pyrazol-4-yl)-3-(1H-pyrrolo[2,3-b]pyridin-2-yl)-1H-pyrazolo[3,4-c]pyridine], the inhibition at 10 µM with SW480 colon cancer cells worked out at 0%; in the experiment with IL-6 (THP-1 cells), 15.2%. The EC50 was greater than 10 µM in the experiment on SW480 colon cancer cells, 0.473 µM in experiment [1] and greater than 10 µM with IL-6 (THP-1 cells).

Regarding `FC1(F)CCN(Cc2cncc(-c3cc4c(-c5cc6cccnc6[nH]5)n[nH]c4cn3)c2)C1` [Compound 278, 5-(5-((3,3-Difluoropyrrolidin-1-yl)methyl)pyridin-3-yl)-3-(1H-pyrrolo[2,3-b]pyridin-2-yl)-1H-pyrazolo[3,4-c]pyridine], the EC50 stood at 5.01 µM in the experiment on SW480 colon cancer cells, 0.111 µM in experiment [1] and 0.029 µM in the experiment with IL-6 (THP-1 cells).
